Assays:
[1] = target: T1, HCV NS3 enzyme (ATPase activity of HCV NS3 helicase) (Hepatitis C virus genotype 1b, UniProt P26663); assay: ATPase activity of HCV NS3 helicase, Malachite Green Assay; format: biochemical; details: free inorganic phosphate release, 30 min at 37 C, 200 μM ATP, 3 nM enzyme, read-out: Anti-ATPase (Malachite Green assay) EC50
Method: (§1) Evaluation of Analogues for measurement of ATPase activity of HCV NS3 helicase
The measurement of ATPase activity was performed by measuring the amount of free inorganic phosphate released during the conversion of ATP to ADP by the HCV NS3 ATPase activity. The assay is as follows: In a 96-well microtiter-plate, compounds were dissolved at various concentrations in a final volume of 25 μl of ATPase buffer containing 400 μM ATP. The enzymatic reaction was initiated by the addition of 25 μl of ATPase buffer containing 6 nM of HCV NS3 enzyme without ATP to the wells followed by an incubation of 30 min. at 37 C. Essentially, the final concentration of the ATPase buffer components are as follows: 44 mM MOPS pH 7.0, 8.8 mM NaCl, 2.2 mM MgCl2, 125 μg/ml poly A, 1% DMSO, 200 μM ATP, and 3 nM HCV NS3 enzyme. The reaction was stopped by the addition of 100 μl of Biomol Green™ reagent (BIOMOL® Research Laboratories Inc., Plymouth Meeting, Pa.). In order to allow the development of the green color, the plate was incubated for 15 min. at room temperature. Then the plate was read on a micro-plate reader at 620 nm. […] The signal recorded was also corrected from the background signal obtained with control samples with compound only. The IC50 was determined from dose-response curves using six to eight concentrations per compound. […]

[2] = target: recombinant HCV NS5B (HCV RNA-dependent RNA polymerase) (Hepatitis C virus genotype 1b, UniProt P26663); assay: biochemical; details: related polymerase activity (Example 27 list); read-out: IC50
Chain of recombinant HCV NS5B (HCV RNA-dependent RNA polymerase) (P26663 2420-3010 limits assumed): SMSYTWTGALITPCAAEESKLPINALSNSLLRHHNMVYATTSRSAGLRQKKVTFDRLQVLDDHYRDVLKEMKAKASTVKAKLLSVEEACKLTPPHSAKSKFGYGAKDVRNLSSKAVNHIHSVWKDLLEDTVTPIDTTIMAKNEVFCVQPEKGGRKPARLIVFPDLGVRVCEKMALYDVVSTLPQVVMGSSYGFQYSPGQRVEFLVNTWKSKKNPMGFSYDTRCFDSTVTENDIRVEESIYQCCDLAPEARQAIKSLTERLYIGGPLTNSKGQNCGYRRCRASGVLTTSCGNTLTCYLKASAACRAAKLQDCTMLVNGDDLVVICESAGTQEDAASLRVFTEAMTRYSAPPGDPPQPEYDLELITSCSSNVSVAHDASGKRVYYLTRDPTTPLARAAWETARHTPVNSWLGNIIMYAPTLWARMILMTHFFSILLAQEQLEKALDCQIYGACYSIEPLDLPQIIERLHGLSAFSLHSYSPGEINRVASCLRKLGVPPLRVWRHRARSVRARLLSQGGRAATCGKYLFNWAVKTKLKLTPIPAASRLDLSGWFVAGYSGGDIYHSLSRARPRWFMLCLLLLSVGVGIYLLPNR

[3] = target: T1, HCV NS3 enzyme (ATPase activity of HCV NS3 helicase); assay: ATPase activity of HCV NS3 helicase, HPLC Assay; format: biochemical; details: ADP produced measured by paired-ion HPLC, 1 nM enzyme, read-out: Anti-ATPase (HPLC method) EC50
Method: as §1
The measurement of HCV NS3 ATPase activity was performed by measuring the amount of ADP produced during the conversion of ATP to ADP by the HCV NS3 enzyme using paired-ion HPLC on a reverse phase column. […]. The mobile phase was an isocratic solution of 0.15 M triethylamine, 6% methanol, and phosphoric acid to pH 5.5. ADP and ATP peaks were resolved using the Aqua 5μ, C18, 125 Å, (150×4.6 mm) reverse phase column. The extent of ATP conversion to ADP was evaluated by measuring the area under the ADP peak produced which was detected at 259 nm. The amount of ADP was corrected for the presence of ADP contaminant in the original ATP solution. […] The IC50 was determined from dose-response curves using six to eight concentrations per compound. Curves were fitted to data points using a non-linear regression analysis, and IC50s were interpolated from the resulting curves using GraphPad Prism software, version 2.0 (GraphPad Software Inc, San Diego, Calif.).

T1 sequence (P26663 1027-1657 limits assumed): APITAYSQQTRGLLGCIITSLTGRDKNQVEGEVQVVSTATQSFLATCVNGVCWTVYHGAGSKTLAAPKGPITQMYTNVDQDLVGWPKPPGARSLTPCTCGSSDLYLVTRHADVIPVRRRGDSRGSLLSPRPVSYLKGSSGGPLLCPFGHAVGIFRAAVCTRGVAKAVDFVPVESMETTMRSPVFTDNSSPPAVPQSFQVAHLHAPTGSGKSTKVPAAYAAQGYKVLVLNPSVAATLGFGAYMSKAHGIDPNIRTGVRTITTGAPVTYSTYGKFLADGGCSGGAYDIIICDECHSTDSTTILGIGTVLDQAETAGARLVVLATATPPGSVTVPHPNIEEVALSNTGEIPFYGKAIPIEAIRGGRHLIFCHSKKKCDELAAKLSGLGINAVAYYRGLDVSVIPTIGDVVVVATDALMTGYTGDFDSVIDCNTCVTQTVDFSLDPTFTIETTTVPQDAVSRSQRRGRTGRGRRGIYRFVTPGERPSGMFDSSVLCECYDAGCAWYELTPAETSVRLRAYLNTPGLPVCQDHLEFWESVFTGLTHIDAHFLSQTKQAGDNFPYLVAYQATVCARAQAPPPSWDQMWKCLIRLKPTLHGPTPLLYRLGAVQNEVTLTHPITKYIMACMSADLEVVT

SMILES: Cc1cc(S(=O)(=O)Nc2cc(-c3ccc(CC(C)C)cc3)sc2C(=O)O)c(C)cc1Cl [Compound #19, 3-(4-Chloro-2,5-dimethyl-benzenesulfonylamino)-5-(4-isobutyl-phenyl)-thiophene-2-carboxylic acid]
- EC50 [1]: < 5 µM
- IC50 [2]: 5 to 20 µM
- EC50 [3]: 5 to 20 µM

Reference: US6881741B2 (ViroChem Pharma Inc., priority 2001, dated 2005)
